Reference: the supplement of paper PMC13380429

Tests used:
[1] = tested on: A549-ACE2; experiment: drug-induced phospholipidosis relative to tamoxifen; higher = more phospholipidosis
[2] = tested on: A549-ACE2; experiment: phospholipidosis EC50; higher = less potent phospholipidosis inducer
[3] = tested on: U2OS; experiment: drug sensitivity score (DSS) for viability; higher = more toxic; extreme values may be limits of the assay; conditions: 72 h
[4] = tested on: HepG2; experiment: as above; conditions: 72 h
[5] = tested on: Caco-2; experiment: as above; conditions: 72 h
[6] = tested on: Vero E6; experiment: as above; conditions: 72 h
[7] = tested on: Calu-3; experiment: as above; conditions: 72 h
[8] = tested on: A549-ACE2 infected with SARS-CoV-2; experiment: cell count relative to DMSO; higher = less toxic; conditions: 24 h
[9] = tested on: Calu-3; experiment: relative viability EC50 (midpoint between 100% and the lowest measured viability); higher = less toxic; conditions: 72 h
[10] = tested on: A549-ACE2 infected with SARS-CoV-2; experiment: SARS-CoV-2 infection rate relative to DMSO; higher = more infection; conditions: 24 h
[11] = tested on: U2OS; experiment: cell viability relative to DMSO; higher = less toxic; conditions: 72 h
[12] = tested on: HepG2; experiment: as above; conditions: 72 h
[13] = tested on: Caco-2; experiment: as above; conditions: 72 h
[14] = tested on: Vero E6; experiment: as above; conditions: 72 h
[15] = tested on: Calu-3; experiment: as above; conditions: 72 h
[16] = tested on: A549-ACE2 infected with SARS-CoV-2; experiment: morphology score (similarity to uninfected cells); higher = more like uninfected cells; conditions: 24 h

NC1(c2ccc(-c3nc4ccn5c(=O)[nH]nc5c4cc3-c3ccccc3)cc2)CCC1 [MK-2206]
drug-induced phospholipidosis [%], [1]
Conditions	0.3 µM	0.833333 µM	3.33333 µM	6.66667 µM	10 µM	30 µM
24 h	3.85	16.3	76	128	149	82.1
48 h	2.41	16.9	89	158	169	–
72 h	0.889	14.8	66.8	–	–	–

Conditions	SARS-CoV-2 infection rate [%]	cell count [%]	cell viability [%]	morphology score	phospholipidosis EC50 [µM]
[2], 24 h	–	–	–	–	3.24
[2], 48 h	–	–	–	–	3.44
[8], 0.1 µM	–	100	–	–	–
[8], 0.3 µM	–	99	–	–	–
[8], 1 µM	–	85	–	–	–
[8], 3 µM	–	103	–	–	–
[10], 0.1 µM	105	–	–	–	–
[10], 0.3 µM	101	–	–	–	–
[10], 1 µM	97	–	–	–	–
[10], 3 µM	29	–	–	–	–
[11], 1 nM	–	–	104	–	–
[11], 10 nM	–	–	103	–	–
[11], 100 nM	–	–	96.9	–	–
[11], 1000 nM	–	–	89	–	–
[11], 10000 nM	–	–	67.8	–	–
[12], 1 nM	–	–	95.6	–	–
[12], 10 nM	–	–	93.7	–	–
[12], 100 nM	–	–	84.8	–	–
[12], 1000 nM	–	–	66.1	–	–
[12], 10000 nM	–	–	59	–	–
[13], 1 nM	–	–	102	–	–
[13], 10 nM	–	–	95.3	–	–
[13], 100 nM	–	–	87.1	–	–
[13], 1000 nM	–	–	75	–	–
[13], 10000 nM	–	–	66.2	–	–
[14], 1 nM	–	–	94	–	–
[14], 10 nM	–	–	94.7	–	–
[14], 100 nM	–	–	93.4	–	–
[14], 1000 nM	–	–	81	–	–
[14], 10000 nM	–	–	63.2	–	–
[15], 1 nM	–	–	104	–	–
[15], 10 nM	–	–	100	–	–
[15], 100 nM	–	–	84.1	–	–
[15], 1000 nM	–	–	63	–	–
[15], 10000 nM	–	–	38	–	–
[16], 0.1 µM	–	–	–	0.19	–
[16], 0.3 µM	–	–	–	0.27	–
[16], 1 µM	–	–	–	0.31	–
[16], 3 µM	–	–	–	0.79	–

Conditions	drug sensitivity score	relative viability EC50 [nM]
[3]	2.7	–
[4]	7.6	–
[5]	5.4	–
[6]	3.9	–
[7]	8.7	–
[9]	–	490
